The source of these data is ChEMBL document CHEMBL1201862, “PubChem BioAssay data set” (2004).

Experiment in all cases: inhibition of tumour cell growth, NCI panel, 48 h
Experiment [1] deals with SN12C.
Experiment [2] has as its system K562.
Experiment [3] has as its system LOX IMVI.
The test system of experiment [4] is ACHN.
Experiment [5] relates to SK-OV-3.
Experiment [6] concerns SF-295.
The subject of experiment [7] is SR.
The subject of experiment [8] is NCI-H460.
For experiment [9], the system named is UACC-62.
The subject of experiment [10] is U-251.
Experiment [11] concerns OVCAR-5.
Experiment [12] concerns MOLT-4.
For experiment [13], the system named is CAKI-1.
For experiment [14], the system named is NCI-H226.
The test system of experiment [15] is HCT-15.
In experiment [16] the test system is RPMI-8226.

Structures are written as SMILES.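 Growth conditions: 96-well plates. Treatment: test compound, 48 hours, 5 concentrations. Analysis: linear interpolation between bracketing concentrations; unreached endpoints set to highest concentration. Abbreviation: GI50, concentration required for 50% inhibition of growth.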 Active and inactive are the calls of the source. No stated cut-off is given here; in the data, active = GI50 up to about 1.1 µM and inactive = higher. A value given as a limit tells only on which side of the number the result lay.

As for `O=c1[nH]c(=O)n(C2CC(O)C(CO)O2)cc1/C=C/Br` (centres undefined), the GI50 in experiment [1], in [2], in experiment [3], in experiment [4], in experiment [5] and in experiment [6] was > 100 µM (inactive) each time. In addition, the GI50 in experiment [7], in [8], in experiment [9], in experiment [10], in experiment [11] and in experiment [12] was > 100 µM (inactive) throughout. Besides, the GI50 in [13] and in experiment [14] was > 100 µM (inactive) throughout.

In the case of `CNC(=O)OCc1nc(SSc2nc(COC(=O)NC)c(COC(=O)NC)n2C)n(C)c1COC(=O)NC`, the GI50 in [1] is > 100 µM (inactive); in [2] it was > 100 µM (inactive); in experiment [3], > 100 µM (inactive); in [4], > 100 µM (inactive); in experiment [5] it was > 100 µM (inactive); in experiment [15] it was above 100 µM. In addition, the GI50 in experiment [6], in experiment [7], in [8], in experiment [9], in experiment [10] and in [16] was > 100 µM (inactive) each time. The GI50 in experiment [11], in experiment [12], in experiment [13] and in experiment [14] was > 100 µM (inactive) each time.

`O=C(Nc1c(O)[nH]c(=S)[nH]c1=O)c1ccccn1`: the GI50 in experiment [1] was > 100 µM (inactive); in experiment [2] it was > 100 µM (inactive); in [3] it was > 100 µM (inactive); in experiment [4] it was > 100 µM (inactive); in experiment [5], > 100 µM (inactive); in experiment [15], above 100 µM. Besides, the GI50 in [6], in [7], in [8], in [9], in experiment [10] and in experiment [16] was > 100 µM (inactive) each time. Moreover, the GI50 in experiment [11], in experiment [12], in experiment [13] and in experiment [14] was > 100 µM (inactive) each time.

For `O=C(c1c(O)cc(O)cc1O)C1Cc2ccccc21` (centres undefined), the GI50 is > 100 µM (inactive) in experiment [1]; 68.1 µM (inactive) in experiment [2]; > 100 µM (inactive) in [3]; > 100 µM (inactive) in experiment [4]; > 100 µM (inactive) in experiment [5]; above 100 µM in experiment [15]. The GI50 is 42.3 µM (inactive) in [6]; > 100 µM (inactive) in [7]; 82.4 µM (inactive) in experiment [8]; > 100 µM (inactive) in [9]; 47.2 µM (inactive) in experiment [10]; 58.1 µM (inactive) in experiment [16]. Moreover, the GI50 is > 100 µM (inactive) in experiment [11], > 100 µM (inactive) in experiment [12], 39.5 µM (inactive) in [13] and > 100 µM (inactive) in experiment [14].

In the case of `CC(C)(c1cn(Cc2ccccc2)c2ccccc12)c1cn(Cc2ccccc2)c2ccccc12`, the GI50 in [1] is 1.7 µM (inactive); in experiment [2], > 100 µM (inactive); in experiment [3], > 100 µM (inactive); in experiment [4], > 100 µM (inactive); in experiment [5], > 100 µM (inactive); in [15] it was above 100 µM. Further, the GI50 in experiment [6], in experiment [7], in experiment [8], in experiment [9], in [10] and in experiment [16] was > 100 µM (inactive) throughout. For the same compound, the GI50 in experiment [11] is > 100 µM (inactive); in experiment [12] it was > 100 µM (inactive); in experiment [13], > 100 µM (inactive); in [14] it was 51.3 µM (inactive).

Turning to `O=C(Cc1nc2ccccc2s1)Nc1ccc(Cl)cc1`, the GI50 in experiment [1] was > 100 µM (inactive); in [2] it was 38.9 µM (inactive); in experiment [3] it was 60.8 µM (inactive); in experiment [4] it was 56.5 µM (inactive); in experiment [5] it was > 100 µM (inactive); in experiment [6], 55.6 µM (inactive). Moreover, the GI50 in experiment [7] is > 100 µM (inactive); in experiment [8] it was > 100 µM (inactive); in [9] it was 82.2 µM (inactive); in experiment [10] it was > 100 µM (inactive); in experiment [11] it was > 100 µM (inactive); in [12], > 100 µM (inactive). The GI50 in experiment [13] and in [14] was > 100 µM (inactive) in each case.

For the compound `CCCCCCCCCCCC(=O)C1=C(O)CC(O)CC1=O` (centres undefined), the GI50 is > 100 µM (inactive) in [1]; 42.2 µM (inactive) in [2]; 54.6 µM (inactive) in experiment [3]; 99.8 µM (inactive) in [4]; > 100 µM (inactive) in experiment [5]; 84.1 µM (inactive) in experiment [6]. For the same compound, the GI50 was > 100 µM (inactive) in experiment [7]; > 100 µM (inactive) in experiment [8]; 95.1 µM (inactive) in experiment [9]; 91.8 µM (inactive) in [10]; 87.3 µM (inactive) in experiment [16]; 68.7 µM (inactive) in [11]. The GI50 was 88.1 µM (inactive) in experiment [12], > 100 µM (inactive) in experiment [13] and 68.7 µM (inactive) in experiment [14].

For the compound `N#COc1ccc(Oc2ccccc2)cc1`, the GI50 in experiment [1] is 62.4 µM (inactive); in experiment [2], 48.4 µM (inactive); in experiment [3], 23.1 µM (inactive); in [4], 29.2 µM (inactive); in [5] it was > 100 µM (inactive); in experiment [15] it was 57.7 µM. Also, the GI50 in [6] was 59.8 µM (inactive); in experiment [7] it was 24.3 µM (inactive); in [8], 43.2 µM (inactive); in experiment [9] it was 31.5 µM (inactive); in [10], 42.7 µM (inactive); in experiment [16] it was 30.4 µM (inactive). Also, the GI50 is > 100 µM (inactive) in [11], 42.9 µM (inactive) in experiment [12], 77.6 µM (inactive) in experiment [13] and > 100 µM (inactive) in experiment [14].

For `Nc1ncnc2sc(Nc3ccccc3)nc12`, the GI50 is 80.4 µM (inactive) in experiment [1]; 22.6 µM (inactive) in experiment [2]; 99.3 µM (inactive) in [3]; 12.3 µM (inactive) in experiment [4]; 46.2 µM (inactive) in experiment [5]; above 100 µM in [15]. Further, the GI50 in [6] was > 100 µM (inactive); in experiment [7], 38 µM (inactive); in [8] it was > 100 µM (inactive); in experiment [9], > 100 µM (inactive); in experiment [10] it was 56.6 µM (inactive); in experiment [16], > 100 µM (inactive). Also, the GI50 is > 100 µM (inactive) in experiment [11], > 100 µM (inactive) in experiment [12], 55.5 µM (inactive) in experiment [13] and > 100 µM (inactive) in experiment [14].

In the case of `N#CC1CC2(CCN1C(=O)c1ccccc1)OCCO2` (centres undefined), the GI50 in experiment [1] was > 100 µM (inactive); in experiment [2], > 100 µM (inactive); in experiment [4] it was > 100 µM (inactive); in experiment [5], > 100 µM (inactive); in [15], above 100 µM; in experiment [6], > 100 µM (inactive). Besides, the GI50 in experiment [7], in experiment [8], in [9], in experiment [10], in experiment [16] and in experiment [11] was > 100 µM (inactive) in each case. For the same compound, the GI50 in experiment [12], in experiment [13] and in experiment [14] was > 100 µM (inactive) each time.

With `CC(SC(=O)Nc1ccc(/N=N/c2ccccc2)cc1)C(=O)O` (centres undefined), the GI50 in [1] is > 100 µM (inactive); in [2], > 100 µM (inactive); in [3], > 100 µM (inactive); in experiment [4] it was 57.9 µM (inactive); in [15], above 100 µM; in experiment [6], 56.4 µM (inactive). Also, the GI50 in experiment [7] is 49 µM (inactive); in experiment [8], > 100 µM (inactive); in experiment [9], 28.8 µM (inactive); in [10] it was > 100 µM (inactive); in experiment [16] it was > 100 µM (inactive); in experiment [11], > 100 µM (inactive). Besides, the GI50 was 34 µM (inactive) in experiment [12], > 100 µM (inactive) in experiment [13] and > 100 µM (inactive) in experiment [14].

Turning to `CN(C)c1ccc(/C=c2/sc3nc(=O)c(-c4ccccc4NC(=O)C(F)(F)F)nn3c2=O)cc1`, the GI50 in experiment [1], in [2], in [3], in experiment [4], in experiment [5] and in experiment [6] was > 100 µM (inactive) throughout. The GI50 in experiment [7] was 93.8 µM (inactive); in experiment [8], > 100 µM (inactive); in experiment [9], > 100 µM (inactive); in experiment [10], 53.3 µM (inactive); in experiment [11], > 100 µM (inactive); in [12], > 100 µM (inactive). For the same compound, the GI50 in [13] is > 100 µM (inactive); in experiment [14], 26.4 µM (inactive).

With `Cc1c2cc[n+](C)cc2c(C)c2c1[nH]c1ccc(OCC(F)(F)F)cc12`, the GI50 in [1] is 0.277 µM (active); in experiment [2], 2.65 µM (inactive); in experiment [5], 3.89 µM (inactive); in experiment [6], 0.327 µM (active); in experiment [7], 2.67 µM (inactive); in experiment [8], 1.85 µM (inactive). For the same compound, the GI50 was 6.82 µM (inactive) in experiment [9]; 0.256 µM (active) in experiment [10]; 2.61 µM (inactive) in experiment [12]; 8.34 µM (inactive) in experiment [13]; 0.499 µM (active) in experiment [14].
